Our source for the MIC values is ChEMBL document CHEMBL1157865, “Synthesis and evaluation of SQ109 analogues as potential anti-tuberculosis candidates” (2010).

Converted amounts (≈) assume the structure as drawn.

This assay has as its system Mycobacterium tuberculosis. Nature of the assay: Antimycobacterial activity against Mycobacterium tuberculosis H37Rv ATCC 25618 by BACTEC 460 radiometric method. The assay is classed as functional.
Compound `CC(C)CCCC(C)CCCC(C)CCNCCNC1C2CC3CC(C2)CC1C3` (stereo unspecified) displayed a minimum inhibitory concentration (MIC) of 0.5 µM (≈ 0.202 µg/mL).
For `CC(C)=CCC/C(C)=C\CNCCNC12CC3CC(CC(C3)C1)C2` the value was 1 µM (≈ 0.331 µg/mL); for `CC(C)=CCC/C(C)=C/CNCCNC1C2CC3CC(C2)CC1C3` (stereo unspecified) [SQ109], 0.5 µM (≈ 0.165 µg/mL).
For `CC(C)CCCC(C)CCNCCNC1C2CC3CC(C2)CC1C3` (stereo unspecified) the value was 1 µM (≈ 0.335 µg/mL); for `CC(C)CCCC(C)CCNCCNC12CC3CC(CC(C3)C1)C2` (stereo unspecified), 0.5 µM (≈ 0.167 µg/mL).
The value for `CC(C)=CCC/C(C)=C/CC/C(C)=C/CNCCNC1C2CC3CC(C2)CC1C3` (stereo unspecified) was 0.25 µM (≈ 0.0997 µg/mL).

What is called MIC is the smallest concentration in the dilution series that meets the test's criterion for growth inhibition. A low value points to a more susceptible organism.
